Active and inactive are the calls of the source. No cut-off for these calls is given here.
system: Saccharomyces cerevisiae; assay: Potency index, ratio of acarbose IC50 to test compound IC50 for Saccharomyces cerevisiae alpha-glucosidase

Ratio IC50 | Structure (SMILES)
39 | CC(C)[C@@H]1CC[C@@H](C)C[C@H]1OC(=O)Cn1cc(COC[C@H]2O[C@H](OCc3cn(CC(=O)O[C@@H]4C[C@H](C)CC[C@H]4C(C)C)nn3)[C@H](OCc3ccccc3)[C@@H](OCc3ccccc3)[C@@H]2OCc2ccccc2)nn1

organism: Homo sapiens; assay: Competitive inhibition of alpha-glucosidase (unknown origin) by kinetics based analysis

inhibition | Structure (SMILES)
Active | CC(C)[C@@H]1CC[C@@H](C)C[C@H]1OC(=O)Cn1cc(COC[C@H]2O[C@H](OCc3cn(CC(=O)O[C@@H]4C[C@H](C)CC[C@H]4C(C)C)nn3)[C@H](OCc3ccccc3)[C@@H](OCc3ccccc3)[C@@H]2OCc2ccccc2)nn1

system: Saccharomyces cerevisiae; assay: Inhibition of Saccharomyces cerevisiae alpha-glucosidase at 0.1 mg/ml

Structure (SMILES) | inhibition
COc1ccc(COC(=O)Cn2cc(COC[C@H]3O[C@H](OCc4cn(CC(=O)OCc5ccc(OC)cc5)nn4)[C@H](OCc4ccccc4)[C@@H](OCc4ccccc4)[C@@H]3OCc3ccccc3)nn2)cc1 | inactive
CCCCCCCCCCCCCCCCCCn1cc(COC[C@H]2O[C@H](OCc3cn(CCCCCCCCCCCCCCCCCC)nn3)[C@H](OCc3ccccc3)[C@@H](OCc3ccccc3)[C@@H]2OCc2ccccc2)nn1 | inactive
C=CCc1ccccc1OCCn1cc(COC[C@H]2O[C@H](OCc3cn(CCOc4ccccc4CC=C)nn3)[C@H](OCc3ccccc3)[C@@H](OCc3ccccc3)[C@@H]2OCc2ccccc2)nn1 | inactive
c1ccc(CO[C@@H]2[C@@H](OCc3ccccc3)[C@@H](OCc3cn(C(c4ccccc4)c4ccccc4)nn3)O[C@H](COCc3cn(C(c4ccccc4)c4ccccc4)nn3)[C@H]2OCc2ccccc2)cc1 | inactive
COc1cc(Cn2cc(COC[C@H]3O[C@H](OCc4cn(Cc5ccc(OCc6ccccc6)c(OC)c5)nn4)[C@H](OCc4ccccc4)[C@@H](OCc4ccccc4)[C@@H]3OCc3ccccc3)nn2)ccc1OCc1ccccc1 | inactive
COc1ccc(OC)c(COC(=O)Cn2cc(COC[C@H]3O[C@H](OCc4cn(CC(=O)OCc5cc(OC)ccc5OC)nn4)[C@H](OCc4ccccc4)[C@@H](OCc4ccccc4)[C@@H]3OCc3ccccc3)nn2)c1 | inactive
COc1cc(COC(=O)Cn2cc(COC[C@H]3O[C@H](OCc4cn(CC(=O)OCc5ccc(OCc6ccccc6)c(OC)c5)nn4)[C@H](OCc4ccccc4)[C@@H](OCc4ccccc4)[C@@H]3OCc3ccccc3)nn2)ccc1OCc1ccccc1 | inactive
COc1cccc(Cn2cc(COC[C@H]3O[C@H](OCc4cn(Cc5cccc(OC)c5)nn4)[C@H](OCc4ccccc4)[C@@H](OCc4ccccc4)[C@@H]3OCc3ccccc3)nn2)c1 | inactive
Cc1cc(COC(=O)Cn2cc(COC[C@H]3O[C@H](OCc4cn(CC(=O)OCc5ccc(Cl)c(C)c5)nn4)[C@H](OCc4ccccc4)[C@@H](OCc4ccccc4)[C@@H]3OCc3ccccc3)nn2)ccc1Cl | inactive

Next, values leading:

inhibition | Structure (SMILES)
inactive | O=C(Cn1cc(COC[C@H]2O[C@H](OCc3cn(CC(=O)OCc4ccccc4)nn3)[C@H](OCc3ccccc3)[C@@H](OCc3ccccc3)[C@@H]2OCc2ccccc2)nn1)OCc1ccccc1
inactive | COc1cccc(COC(=O)Cn2cc(COC[C@H]3O[C@H](OCc4cn(CC(=O)OCc5cccc(OC)c5)nn4)[C@H](OCc4ccccc4)[C@@H](OCc4ccccc4)[C@@H]3OCc3ccccc3)nn2)c1
inactive | C=CCCCCCCCCCn1cc(COC[C@H]2O[C@H](OCc3cn(CCCCCCCCCC=C)nn3)[C@H](OCc3ccccc3)[C@@H](OCc3ccccc3)[C@@H]2OCc2ccccc2)nn1
inactive | O=C(Cn1cc(COC[C@H]2O[C@H](OCc3cn(CC(=O)c4cc5ccccc5oc4=O)nn3)[C@H](OCc3ccccc3)[C@@H](OCc3ccccc3)[C@@H]2OCc2ccccc2)nn1)c1cc2ccccc2oc1=O
inactive | CCCCCCCCCCCCCn1cc(COC[C@H]2O[C@H](OCc3cn(CCCCCCCCCCCCC)nn3)[C@H](OCc3ccccc3)[C@@H](OCc3ccccc3)[C@@H]2OCc2ccccc2)nn1
inactive | O=C(Cn1cc(COC[C@H]2O[C@H](OCc3cn(CC(=O)OC(c4ccccc4)c4ccccc4)nn3)[C@H](OCc3ccccc3)[C@@H](OCc3ccccc3)[C@@H]2OCc2ccccc2)nn1)OC(c1ccccc1)c1ccccc1
inactive | c1ccc(CCn2cc(COC[C@H]3O[C@H](OCc4cn(CCc5ccccc5)nn4)[C@H](OCc4ccccc4)[C@@H](OCc4ccccc4)[C@@H]3OCc3ccccc3)nn2)cc1

target: not listed separately; assay: Inhibition of Saccharomyces cerevisiae alpha-glucosidase

Structure (SMILES) | IC50
c1ccc(CO[C@@H]2[C@@H](OCc3ccccc3)[C@@H](OCc3cn(CCOc4ccc5ccccc5c4)nn3)O[C@H](COCc3cn(CCOc4ccc5ccccc5c4)nn3)[C@H]2OCc2ccccc2)cc1 | 13.9 µM
O=C1C=C(OCCCCCCn2cc(COC[C@H]3O[C@H](OCc4cn(CCCCCCOC5=CC(=O)Cc6ccccc65)nn4)[C@H](OCc4ccccc4)[C@@H](OCc4ccccc4)[C@@H]3OCc3ccccc3)nn2)c2ccccc2C1 | 20.8 µM
CCCCCCCC/C=C\CCCCCCCCn1cc(COC[C@H]2O[C@H](OCc3cn(CCCCCCCC/C=C\CCCCCCCC)nn3)[C@H](OCc3ccccc3)[C@@H](OCc3ccccc3)[C@@H]2OCc2ccccc2)nn1 | 14.1 µM
c1ccc(CO[C@@H]2[C@@H](OCc3ccccc3)[C@@H](OCc3cn(CCOc4ccccc4)nn3)O[C@H](COCc3cn(CCOc4ccccc4)nn3)[C@H]2OCc2ccccc2)cc1 | 24.4 µM
COc1ccc(OC)c(Cn2cc(COC[C@H]3O[C@H](OCc4cn(Cc5cc(OC)ccc5OC)nn4)[C@H](OCc4ccccc4)[C@@H](OCc4ccccc4)[C@@H]3OCc3ccccc3)nn2)c1 | 3.86 µM
c1ccc(CO[C@@H]2[C@@H](OCc3ccccc3)[C@@H](OCc3cn(CCOc4cccc5ccccc45)nn3)O[C@H](COCc3cn(CCOc4cccc5ccccc45)nn3)[C@H]2OCc2ccccc2)cc1 | 29.4 µM
Cc1ccc(OCCn2cc(COC[C@H]3O[C@H](OCc4cn(CCOc5ccc(C)cc5)nn4)[C@H](OCc4ccccc4)[C@@H](OCc4ccccc4)[C@@H]3OCc3ccccc3)nn2)cc1 | 50.5 µM

The next lines start with the values.

IC50 | Structure (SMILES)
21.7 µM | O=c1ccc2cc(OCCCCCCn3cc(COC[C@H]4O[C@H](OCc5cn(CCCCCCOc6ccc7oc(=O)ccc7c6)nn5)[C@H](OCc5ccccc5)[C@@H](OCc5ccccc5)[C@@H]4OCc4ccccc4)nn3)ccc2o1
9.98 µM | O=C(Cn1cc(COC[C@H]2O[C@H](OCc3cn(CC(=O)Oc4cccc5ccccc45)nn3)[C@H](OCc3ccccc3)[C@@H](OCc3ccccc3)[C@@H]2OCc2ccccc2)nn1)Oc1cccc2ccccc12
53.3 µM | O=[N+]([O-])c1ccc(Cn2cc(COC[C@H]3O[C@H](OCc4cn(Cc5ccc([N+](=O)[O-])cc5)nn4)[C@H](OCc4ccccc4)[C@@H](OCc4ccccc4)[C@@H]3OCc3ccccc3)nn2)cc1
12.1 µM | c1ccc(CO[C@@H]2[C@@H](OCc3ccccc3)[C@@H](OCc3cn(Cc4ccccc4)nn3)O[C@H](COCc3cn(Cc4ccccc4)nn3)[C@H]2OCc2ccccc2)cc1
146 µM | C[C@H]1O[C@H](O[C@H]2[C@H](O)[C@@H](O)[C@@H](O[C@H]3[C@H](O)[C@@H](O)C(O)O[C@@H]3CO)O[C@@H]2CO)[C@H](O)[C@@H](O)[C@@H]1N[C@H]1C=C(CO)[C@@H](O)[C@H](O)[C@H]1O (some centres undefined) [ACARBOSE]
3.73 µM | CC(C)[C@@H]1CC[C@@H](C)C[C@H]1OC(=O)Cn1cc(COC[C@H]2O[C@H](OCc3cn(CC(=O)O[C@@H]4C[C@H](C)CC[C@H]4C(C)C)nn3)[C@H](OCc3ccccc3)[C@@H](OCc3ccccc3)[C@@H]2OCc2ccccc2)nn1
37.3 µM | Fc1ccc(Cn2cc(COC[C@H]3O[C@H](OCc4cn(Cc5ccc(F)cc5)nn4)[C@H](OCc4ccccc4)[C@@H](OCc4ccccc4)[C@@H]3OCc3ccccc3)nn2)cc1
5.68 µM | O=C(Cn1cc(COC[C@H]2O[C@H](OCc3cn(CC(=O)OCc4ccc([N+](=O)[O-])cc4)nn3)[C@H](OCc3ccccc3)[C@@H](OCc3ccccc3)[C@@H]2OCc2ccccc2)nn1)OCc1ccc([N+](=O)[O-])cc1
22.9 µM | O=[N+]([O-])c1cccc(Cn2cc(COC[C@H]3O[C@H](OCc4cn(Cc5cccc([N+](=O)[O-])c5)nn4)[C@H](OCc4ccccc4)[C@@H](OCc4ccccc4)[C@@H]3OCc3ccccc3)nn2)c1

Reference: ChEMBL document CHEMBL4808241, “Synthesis and biological evaluation of 1,6-bis-triazole-2,3,4-tri-O-benzyl-α-d-glucopyranosides as a novel α-glucosidase inhibitor in the treatment of Type 2 diabetes” (Bioorg Med Chem Lett, 2021)
